Here are results for 12 molecules from US9580396B2, “C6-spiro iminothiadiazine dioxides as BACE inhibitors, compositions, and their use” (Merck Sharp & Dohme Corp., priority 2012, dated 2017).

Experiment [1] addresses purified human autoBACE-2 (Homo sapiens (Human), UniProt Q9Y5Z0). Put plainly: BACE-2 Assay (BACE-HTRF assay). Type of experiment: biochemical. Conditions: Ki calculated from IC50 using the Cheng-Prusoff equation; QSY7-EISEVNLDAEFC-Eu-amide substrate, pH 5.0; read-out: BACE2 Ki. How it is done:
Inhibitor IC50s at purified human autoBACE-2 are determined in a time-resolved endpoint proteolysis assay that measures hydrolysis of the QSY7-[…]-Eu-amide FRET peptide substrate (BACE-HTRF assay). […] DMSO is present at 5% final concentration in the assay. Following laser excitation of sample wells at 320 nm, the fluorescence signal at 620 nm is collected for 400 ms following a 50 μs delay on a RUBYstar HTRF plate reader (BMG Labtechnologies). Raw RFU data is normalized to maximum (1.0 nM BACE/DMSO) and minimum (no enzyme/DMSO) RFU values. […] The Ki values are calculated from the IC50 using the Cheng-Prusoff equation.

The target of experiment [2] is soluble human BACE1 catalytic domain (Homo sapiens (Human), UniProt P56817). Put plainly: BACE1 HTRF FRET Assay. Format: biochemical. Conditions: Ki calculated from IC50 using the Cheng-Prusoff equation; QSY7-APPswe-Eu substrate, pH 5.0. The source says:
Na^+-Acetate pH 5.0; 1% Brij-35; Glycerol; Dimethyl Sulfoxide (DMSO); Recombinant human soluble BACE1 catalytic domain (>95% pure); APP Swedish mutant peptide substrate (QSY7-APP^swe-Eu): QSY7-EISEVNLDAEFC-Europium-amide.
A homogeneous time-resolved FRET assay can be used to determine IC50 values for inhibitors of the soluble human BACE1 catalytic domain. This assay monitors the increase of 620 nm fluorescence that resulted from BACE1 cleavage of an APPswedish APP^swe mutant peptide FRET substrate (QSY7-EISEVNLDAEFC-Europium-amide). This substrate contains an N-terminal QSY7 moiety that serves as a quencher of the C-terminal Europium fluorophore (620 nm Em). In the absence of enzyme activity, 620 nm fluorescence is low in the assay and increased linearly over 3 hours in the presence of uninhibited BACE1 enzyme Inhibition of BACE1 cleavage of the QSY7-APP^swe-Eu substrate by inhibitors is manifested as a suppression of 620 nm fluorescence.
Varying concentrations of inhibitors at 3× the final desired concentration in a volume of 10 ul are preincubated with purified human BACE1 catalytic domain (3 nM in 10 μl) for 30 minutes at 30° C. in reaction buffer containing 20 mM Na-Acetate pH 5.0, 10% glycerol, 0.1% Brij-35 and 7.5% DSMO. Reactions are initiated by addition of 10 μl of 600 nM QSY7-APP^swe-Eu substrate (200 nM final) to give a final reaction volume of 30 μl in a 384 well Nunc HTRF plate. The reactions are incubated at 30° C. for 1.5 hours. The 620 nm fluorescence is then read on a Rubystar HTRF plate reader (BMG Labtechnologies) using a 50 millisecond delay followed by a 400 millisecond acquisition time window Inhibitor IC50 values are derived from non-linear regression analysis of concentration response curves. Ki values are then calculated from IC50 values using the Cheng-Prusoff equation using a previously determined […] of 8 μM for the QSY7-APP^swe-Eu substrate at BACE1.

Sequence of soluble human BACE1 catalytic domain (P56817 75-416): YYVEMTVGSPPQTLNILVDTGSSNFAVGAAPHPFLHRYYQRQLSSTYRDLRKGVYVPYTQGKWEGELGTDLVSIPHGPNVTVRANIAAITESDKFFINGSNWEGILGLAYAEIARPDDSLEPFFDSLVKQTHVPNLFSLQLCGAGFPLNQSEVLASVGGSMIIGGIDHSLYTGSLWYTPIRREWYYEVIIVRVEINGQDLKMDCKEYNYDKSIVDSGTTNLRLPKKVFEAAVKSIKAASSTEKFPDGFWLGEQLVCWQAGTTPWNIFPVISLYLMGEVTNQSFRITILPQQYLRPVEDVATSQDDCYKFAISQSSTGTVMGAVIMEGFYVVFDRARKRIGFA

Turning to `CN1C(=N)N[C@@]2(CCOc3ccc(NC(=O)c4ccc(OC(F)(F)F)cn4)cc32)CS1(=O)=O` [Example 2v], the Ki (in general, the dissociation constant of the complex between target and ligand, obtained from inhibition or displacement) in experiment [1] was 261 nM; in experiment [2], 52 nM.

For the molecule `CN1C(=N)N[C@@]2(CCOc3ccc(NC(=O)c4cnc(C(F)(F)F)cn4)cc32)CS1(=O)=O` [Example 2m], the values for the Ki in experiment [1] and in experiment [2] were 1150 nM and 303 nM, respectively.

On to `CN1C(=N)N[C@@]2(CCCc3ccc(NC(=O)C(F)F)cc32)CS1(=O)=O` [Example 4d], for which the results for the Ki in experiment [1] and in experiment [2] were 515 nM and 2580 nM, respectively.

For the molecule `CN1C(=N)N[C@@]2(CCOc3ccc(NC(=O)c4cnc(OCCF)cn4)cc32)CS1(=O)=O` [Example 2w], the Ki in experiment [1] is 572 nM; in experiment [2], 229 nM.

For `COc1cnc(C(=O)Nc2ccc3c(c2)[C@]2(CCO3)CS(=O)(=O)N(C)C(=N)N2)c(C)n1` [Example 2j], the Ki in experiment [1] is 160 nM; in experiment [2], 294 nM.

Regarding `CN1C(=N)N[C@@]2(CCCc3ccc(NC(=O)c4ccc(C#N)cn4)cc32)CS1(=O)=O` [Example 5i], the values for the Ki in experiment [1] and in experiment [2] were 44 nM and 19 nM, respectively.

As for `CN1C(=N)N[C@@]2(CCOc3ccc(NC(=O)c4ccc(C#N)cn4)cc32)CS1(=O)=O` [Example 2c], the Ki was 51 nM in experiment [1] and 26 nM in experiment [2].

On to `CN1C(=N)N[C@@]2(CCCc3ccc(NC(=O)c4ccc(C(F)(F)F)cn4)cc32)CS1(=O)=O` [Example 5v], for which the Ki in experiment [1] was 171 nM; in experiment [2] it was 55 nM.

In the case of `CN1C(=N)N[C@@]2(CCOc3ccc(NC(=O)c4cnsn4)cc32)CS1(=O)=O` [Example 2s], the Ki in experiment [1] is 46 nM; in experiment [2], 240 nM.

On to `COCC(=O)Nc1ccc2c(c1)[C@]1(CCO2)CS(=O)(=O)N(C)C(=N)N1` [Example 1c], for which the Ki in experiment [1] was 341 nM; in experiment [2], 2010 nM.

With `CN1C(=N)N[C@@]2(CCOc3ccc(NC(=O)c4ccc(OCF)cn4)cc32)CS1(=O)=O` [Example 2a], the results for the Ki in experiment [1] and in experiment [2] were 59 nM and 91 nM, respectively.

Regarding `COc1cnc(C(=O)Nc2ccc3c(c2)[C@]2(CCC3)CS(=O)(=O)N(C)C(=N)N2)c(C)c1` [Example 5o], the results for the Ki in experiment [1] and in experiment [2] were 17 nM and 119 nM, respectively.
